Consider one compound from patent US20230355613A1, “METHODS FOR TREATING PANCREATIC DUCTAL ADENOCARCINOMA” (HEALTH RESEARCH, INC., priority 2022, published 2023).

Each structure is given as a SMILES string.

For test [1], the system named is PDAC cells. Put plainly: BrdU incorporation assay. Type of test: cell-based. The following applies: within 8 hours. Here is the method: Finally, we sought to determine how JTE-607-mediated depletion of RD histones led to defects in cell viability. As RD histones are required for cell cycle progression, we assessed the effects of JTE-607 on cell cycle distribution. […] In contrast, JTE-607 arrested Panc1 and MiaPaCa2 PDAC cells in S-phase of the cell cycle within 24 hours (FIGS. 7A and 7B). To corroborate the impact of CPSF3 knockdown on cell cycle, CPSF3 was transiently knocked-down with siRNA in Panc1 and HPNE cells (FIGS. 13D, 7C). CPSF3 knockdown induced cell cycle arrest in Panc1 cells with minimal effect on HPNE cells (FIGS. 7D and 7E). However, unlike CPSF3 inhibition-induced cell cycle arrest at S-phase, CPSF3 knockdown cells arrested at G2. […] To more specifically investigate the timing and extent of S-phase arrest upon JTE-607 treatment, BrdU incorporation was examined in a time-dependent manner (FIG. 7F). […] This is in support of previous reports where histone defects slow the progression of cells during S-phase. Therefore, JTE-607 destabilizes chromatin and attenuates PDAC cell proliferation through S-phase cell cycle arrest.
BrdU incorporation assay. […] Cells were analyzed by flow cytometry immediately and a compensation step was performed. Data were analyzed by FCS Express software (v7.06.0015).

Test [2] concerns HPNE cells. The test can be described thus: Micrococcal Nuclease (MNase) assay of chromatin condensation. Type of test: cell-based, human. Particulars: compared with DMSO-treated cells. As to the method:
(§1) Therefore, a Micrococcal Nuclease (MNase) assay was performed to assess relative chromatin condensation. In this assay, protein-free DNA is digested by MNase, producing DNA fragmentation patterns that are indicators of whether chromatin is in a condensed or relaxed state. […] To assess chromatin destabilization in a living cell, the HeLa-TI cell line model that has a silenced GFP reporter within a heterochromatic region of the genome was utilized. […] Therefore, GFP expression in HeLa-TI cells was monitored upon JTE-607 treatment by both fluorescence microscopy and flow cytometry.
(§2) Micrococcal digestion. Micrococcal Nuclease (MNase) was performed as previously described. Briefly, cells were trypsinized, washed with 1×RSB buffer (10 mM Tris HCL, pH 7.6; 15 mM NaCl; 1.5 mM MgCl2) and pelleted at 1000 rpm for 4 minutes at room temperature. Cell pellets were resuspended in 1×RSB buffer with 1% TritonX-100, homogenized with a loose pestle (5 strokes) and centrifuged for 5 minutes at 2000 rpm at 4° C. Pellets were washed two times with 1 ml of buffer A (10 mM Tris HCL, pH 7.6; 15 mM NaCl; 60 mM KCl; 0.34 M Sucrose; 0.1% B-mercaptoethanol; 0.15 mM Spermine; 0.5 mM Spermidine; 0.25 mM PMSF) and nuclei were pelleted at 160 g for 10 minutes at 4° C. Nuclei were resuspended in 1.5 mL of buffer A supplemented with 1 mM of CaCl2). Nuclear suspensions (500 μL) were digested with 200 U/mL Micrococcal nuclease at 37° C. at different time points.

The test system of test [3] is Panc1 cells. Described as above. The format is cell-based, human. Here is the method:
as §1, §2

Test [4] deals with HPNE cells. Put plainly: Histone transcriptional read-through by RT-qPCR. Type of test: cell-based, human. The text has this:
(§3) JTE-607 induces RD-histone read-through preferentially in PDAC cells. […] It was sought to validate this transcriptional read-through phenomena experimentally by RT-qPCR. Two RD- and two RI-histones that show differences beyond their 3′ end boundaries were picked for experimental validation (FIGS. 13A and 13B). PCR primers were designed to amplify different regions within and beyond the boundaries of the 3′-UTR (FIG. 13C). […] However, the effect of JTE-607 on transcriptional read-through in HPNE cells was minimal (FIG. 5A). […] Because stable long-term knockdown can force cells to adapt, it was asked whether short-term knockdown of CPSF3 can recapitulate JTE-607 effect on transcriptional read-through. […] Improperly processed histone mRNAs fail to be exported into the cytoplasm for translation, leading to decreased protein levels. […] Next, it was determined whether histone dysregulation might be transcriptionally mediated by dysregulation of transcription factors at the levels of APA or gene expression. MotifMap, an integrative genome-wide map of regulatory motif sites, was used to find putative transcription factors regulating expression of RD histones. 51 transcription factors that have strong binding sites (1000 bp upstream of transcription start site; FDR<0.05) within RD histone promoters (Table S3 (attached as a Large Table)) were found. However, these histone transcription factors are neither APA altered nor differentially expressed upon JTE-607 treatment (FIGS. 13G and 13H). Taken together, these findings indicate that JTE-607 decreases RD histone expression by promoting transcriptional read-through.
(§4) RNA isolation and quantitative PCR. Cells were lysed with TRIzol reagent. RNA was isolated using Direct-zol RNA Miniprep. cDNA was synthesized using iScript cDNA Synthesis Kit. qPCR was conducted with SYBR Green PCR primers mixed with iTaq Universal SYBR Green Supermix and run on CFX connect systems (Bio-Rad). Data were analyzed in Microsoft Excel and graphed using GraphPad Prism (v 9.3.0).

Test [5] relates to Panc1 cells. The test can be described thus: Histone transcriptional read-through by RT-qPCR. Type of test: cell-based, human.
Text: as §3, §4

The mark [6] stands for this setting: early or late time points (2 h, 24 h).

`CCOC(=O)[C@H](Cc1ccccc1)NC(=O)c1cc(Cl)c(OCCN2CCN(C)CC2)c(Cl)c1O` [JTE-607]: the “cell cycle arrest phase (BrdU incorporation)” value in test [1] is “early to mid S-phase”. Moreover, the “chromatin digestion by MNase” value in test [2] is “no chromatin digestion”; in test [3] (compared with DMSO-treated cells), “rapid and complete chromatin digestion”. In test [3] (after 30 minutes of incubation), the “mononucleosomes released by MNase digestion” value is on record as ~4×10^3 normalized FU. For the same compound, the “transcriptional read-through of RD histones” value was “minimal” in test [4] (24 h treatment) and “up to −20 fold change” in test [5] (24 h treatment, normalized to DMSO). Besides, the “transcriptional read-through of RI histones” value in test [4] (setting [6]) and in test [5] (setting [6]) was “did not induce transcriptional read-through” in each case.
